Source: US9914874B2, “Composite nanoparticles including a malonic acid derivative” (3M INNOVATIVE PROPERTIES COMPANY, priority 2013, dated 2018)

Test: Solubility of the malonic acid derivative in toluene
Assay type: physicochemical
Details: based on total weight of the solution

In the case of `CC(CC=C(C(=O)O)C(=O)O)CC(C)(C)C` (stereo not shown) [Example 3, 2-(3,5,5-Trimethylhexylidene)propanedioic Acid], the solubility in toluene is reported as “greater than 1 weight percent”.
